Values belong to the molecule of their own block, whether it stands above or below them.
Columns and labels:
SSTR2 [1] = test: in vivo; design: species or system athymic nude mice; details: athymic nude, mouse, 10 MBq
Experimental: (§1) H446 and H69 as SSTR2 expressing SCLC cell lines were subcutaneously inoculated into mice to establish a mouse xenograft model. The results were obtained from PET scans. […] By control experiments, the tumors were blocked with non-radioactive (non-labelled) DOTATOC (octreotide) for comparative reasons (“w/Block”).
(§2) Tumor accumulation of ^68Ga-DOTATOC (10 MBq) was evaluated in SCLC xenograft mouse model by subcutaneous inoculation of 2-3 mio SSTR2 expressing H446 and H69 cells, respectively, into athymic nude mice. The results (obtained from PET scans) shown in FIG. 8 reveal a visible uptake of ^68Ga-DOTATOC in the tumor after 4 hours p.i.

[2] = tested on: SSTR2 expressing H69 cells; test: in vivo; design: species or system athymic nude mice; details: mouse
Experimental: as §1, §2

SSTR2 [3] = test: in vivo; design: species or system athymic nude mice; details: athymic nude, mouse, 10 MBq; remark: listed apart in the source
Experimental: as §1, §2

H69 SCLC cells = test: Tumor growth delay and survival, H69 xenograft mouse model; details: PARP inhibitor alone
Experimental: H446 (FIG. 5) or H69 (FIG. 6) SCLC cells were subcutaneously inoculated in athymic nude mice to establish xenograft mouse models (injection of about 2 mio. cells in 200 μl Medium/Matrigel (1:1). Tumor volume and body weight were monitored daily during the study period. The differences of the initial tumor volume and the body weight of the mice of each treatment arm were negligible. The animals were treated with either PARP inhibitor alone or ^177Lu-DOTATOC alone, or with a combination of PARP inhibitor and of ^177Lu-DOTATOC. The onset of the treatment was at day 19 (H446 model) or at day 11 (H69 model) (administration of the PARP inhibitor), respectively. These groups were compared to an untreated control group. While the radiopharmaceutical was administered to the animals only once, the animals were treated with PARP inhibitor in two cycles of five days each (10 mg/kg in 200 μl PBS i.p.) at days 19 to 23 and 26 to 30 or at days 11 to 15 and 18 to 22, respectively. The treatment was interrupted for two days after the end of the first PARP inhibitor treatment cycle. ^177Lu-DOTATOC (40 MBq, 223 MBq/nmol) was administered in the middle of the first PARP inhibitor treatment cycle (at day 21 or at day 13, respectively). Study endpoint was a tumor size exceeding 15 mm in each dimension.

PARP = details: cited from earlier work
H69 cells = test: Cell viability (IC50) assay in H69 SCLC cells; assay type: cell-based, human
Source text: FIG. 3A: Determination of the IC50 values of Rucaparib in the H446 and H69 cell lines. FIG. 3B: H446, FIG. 3C: H69 cell lines. Cell viability was studied upon combined cell treatment with Olaparib and ^177Lu-DOTA-TOC vs. ^177Lu-DOTA-TOC alone.
(§3) FIG. 1A). […] At such concentrations, neither Rucaparib nor ^177Lu-DOTATOC, respectively, alone have any major impact on cell viability. The activity required for ^177Lu-DOTATOC to reduce cell viability to 50% by H446 cells in the combination treatment was reduced by a factor of 10 (5 μM Rucaparib) to 22 (20 μM Rucaparib).
(§4) Further evidence for such a synergistic effect was collected by analogous viability assays employing other PARP inhibitors, such as Olaparib and Talazoparib, in combination with ^177Lu-DOTATOC. The applied PARP inhibitor concentrations for combination therapy was adjusted depending on their individual cytotoxicity. […] That finding was proven in all cell lines.

H446 cells = test: Cell viability (IC50) assay in H446 SCLC cells; assay type: cell-based, human
Experimental: FIG. 1A: H446 and H69 cells treated with increasing concentrations of Rucaparib. […] (IC50 values: ^177Lu-DOTA-TOC: 8.9 kBq, ^177Lu-DOTATOC and 5 μM Rucaparib: 0.9 kBq, ^177LU-DOTATOC and 20 μM Rucaparib; 0.4 kBq)
as §3, §4

Structure (SMILES): C[C@@H](O)[C@@H]1NC(=O)[C@H](CCCCN)NC(=O)[C@@H](Cc2c[nH]c3ccccc23)NC(=O)[C@H](Cc2ccc(O)cc2)NC(=O)[C@@H](NC(=O)[C@@H](Cc2ccccc2)NC(=O)CN2CCN(CC(=O)O)CCN(CC(=O)O)CCN(CC(=O)O)CC2)CSSC[C@@H](C(=O)N[C@H](CO)[C@@H](C)O)NC1=O [^68Ga-DOTATOC, ^68Ga-DOTA-D-Phe-cyclo(Cys-Tyr-D-Trp-Lys-Thr-Cys)Thr(ol), metal not drawn]
tissue uptake at 4 h (SSTR2 [1]): 1 to 3 %ID/g
Uptake in H69 cells relative to H446 cells [2]: ~2 fold
tissue uptake at 4 h (SSTR2 [3]): 1 to 3 %ID/g

Structure (SMILES): O=C(c1cc(Cc2n[nH]c(=O)c3ccccc23)ccc1F)N1CCN(C(=O)C2CC2)CC1 [Olaparib]
Anti-cancer effect of single therapy (H69 SCLC cells): did not result in major anti-cancer effects

Structure (SMILES): Cn1ncnc1[C@H]1c2n[nH]c(=O)c3cc(F)cc(c23)N[C@@H]1c1ccc(F)cc1 [Talazoparib]
Potency relative to olaparib (PARP): about 100 times

IC50 (H446 cells; Homo sapiens, NCI-H446, Rucaparib alone): 32 µM
Structure (SMILES): CNCc1ccc(-c2[nH]c3cc(F)cc4c3c2CCNC4=O)cc1 [Rucaparib]
Anti-cancer effect of single therapy (H69 SCLC cells): did not result in major anti-cancer effects
Cell viability (H69 cells; 20 μM Rucaparib alone): slightly reduced
IC50 (H69 cells; Homo sapiens, NCI-H69, Rucaparib alone): 36 µM
Cell viability (H446 cells; 20 μM Rucaparib alone): slightly reduced
